From patent US10017574B2, “Methods, kits and devices for promoting cardiac regeneration” (Yeda Research and Development Co. Ltd., priority 2015, dated 2018)
“Also recorded” adds a separate entry of the source.

Experiments:
caErbb2 CMs [1] = test: Cell-cycle re-entry (Ki67) of P7 caErbb2 CMs treated in vitro with inhibitors or factors; type: cell-based, mouse; details: P7 neonatal caErbb2 heart cells, treated in vitro for 2 days
Description: (§1) Doxycycline inducible CM restricted overexpression of a constitutively active Erbb2 (caErbb2) was generated by crossing TetRE-caErbb2 mouse line^65 (a B6SJLF1/J transgenic line in which this mutated Erbb2 is placed under the control of a minimal CMV promoter and the tetracycline-responsive element) with αMHC-tTA^66, which expresses the tetracycline-responsive transcriptional activator (tTA) under the control of the human alpha myosin heavy chain promoter (αMHC) promoter (see FIG. 10A). αMHC-tTA strain was created in the FVB background and then the line was backcrossed to C57BL/6. Doxycycline (DOX, Harlan Laboratories) was administered in the food to repress transgene expression.
(§2) Primary cardiomyocytes were isolated from 1-day-old (P1) and 7-days-old (P7) mice using a neonatal dissociation kit (gentleMACS, Germany), according to the manufacturer's instructions, and cultured in gelatin-coated (0.1%, G1393, Sigma, St. Louis, Mo., USA) wells with DMEM/F12 medium supplemented with L-glutamine, Na-pyruvate, Non-essential amino acids, penicillin, streptomycin, 5% Horse serum and 10% FBS (hereafter referred to as “complete-medium”) at 37° C. and 5% CO2.
(§3) In cultures isolated from hearts of P7 ctrl and caErbb2-cOE animals, the cells were seeded in the aforementioned complete-medium for 48 hours, in the presence of the following substances: MEK/MAPKK kinase inhibitor regarded in the text as ERK inhibitor (2 μM, PD0325901, Tocris Bioscience, Bristol, UK), AKT1/2 inhibitor (5 μM, AKT inhibitor VIII, ApexBio, Houston, Tex., USA), GSK3β inhibitor (10 μM, CHIR-99021, Axon Medchem, Netherlands), β-Catenin inhibitor (10 μM, IWR-1, Sigma, St. Louis, Mo., USA), p38 inhibitor (10 μM SB202190, Merck Millipore, Massachusetts, USA), Periostin (500 ng/ml; BioVendor, Brno Czech Republic), FGF1 (100 ng/ml; R&D Systems, MN, USA). The dissolving reagents were added to unstimulated samples. Subsequently, cells were fixed in 4% PFA and stained for markers of interest.
(§4) Heart sections underwent deparaffinization, fixation in 4% PFA (5 minutes) and microwave antigen retrieval in EDTA or citric acid buffer, followed by gradual chilling. Then heart sections and cultured cells were processed in the following manner. Samples were permeabilized with 0.5% Triton X-100 in PBS for 5 minutes and blocked with 5% bovine serum albumin (BSA, Sigma, St. Louis, Mo., USA) in PBS containing 0.1% Triton for 1 hour at room temperature. Then samples were incubated 1 hour at room temperature or overnight at 4° C. with the following antibodies diluted in 3% BSA blocking solution: anti-Troponin T (1:200, ab33589, Abcam, Cambridge, Mass., USA), anti-Troponin I (1:200, ab47003, Abcam, Cambridge, Mass., USA) or anti-NKX2.5 (1:200, ab35842, Abeam, Cambridge, Mass., USA) Abs were used to identify CMs. Anti-Ki67 antibody (1:200, 275R, Cell Marque, Austin, Tex., USA) anti-BRDU antibody (1:100, G3G4, DSHB, Iowa City, Iowa, USA), anti-phosphorylated-Histone3 (pH3) antibody (1:200, SC-8656-R, Santa Cruz Biotechnology Inc., Santa Cruz, Calif., USA) and anti-Aurora B (1:100, 611082, BD Transduction Laboratories, Lexington, Ky., USA) were used to analyze cell cycle re-entry, DNA synthesis, karyokinesis and cytokinesis, respectively. Other Abs used in the study: anti-ErbB2 (1:50, sc-284, Santa Cruz Biotechnology Inc., Santa Cruz, Calif., USA), anti-αSMA (1:50, A5691, Sigma, St. Louis, Mo., USA), RUNX1 (1:200, ab92336, Abcam, Cambridge, Mass., USA), anti-DAB2 (1:200, sc-13982, Santa Cruz Biotechnology Inc., Santa Cruz, Calif., USA), anti-β-Catenin (1:200, ab32572, Abcam, Cambridge, Mass., USA). After three washes with PBS, 10 minutes each, samples were stained for 1 hour at room temperature or overnight at 4° C. with fluorescent secondary antibodies (Abeam, Cambridge, Mass., USA) followed by 10 minutes of DAPI (4,6-diamidino-2-phenylindole dihydrochloride) staining for nuclei visualization. […]

β-Catenin in caErbb2 CMs = test: β-Catenin immunofluorescence in P7 caErbb2 heart cells treated in vitro with inhibitors; type: cell-based, mouse; details: P7 neonatal caErbb2 heart cells, 10 μM
Description: as §1
Primary cardiomyocytes were isolated from 1-day-old (P1) and 7-days-old (P7) mice using a neonatal dissociation kit (gentleMACS, Germany), according to the manufacturer's instructions, and cultured in gelatin-coated (0.1%, G1393, Sigma, St. Louis, Mo., USA) wells with DMEM/F12 medium supplemented with L-glutamine, Na-pyruvate, Non-essential amino acids, penicillin, streptomycin, 5% Horse serum and 10% FBS (hereafter referred to as “complete-medium”) at 37° C. and 5% CO2. […]

caErbb2 CMs [2] = test: Dedifferentiation (RUNX1 expression, sarcomeric disassembly) of P7 caErbb2 CMs treated in vitro with inhibitors or factors; type: cell-based, mouse; details: P7 neonatal caErbb2 heart cells, treated in vitro for 2 days
Description: as §1, §2, §3, §4

neonatal Erbb2-cKO CMs = test: NRG1-stimulated proliferation of cultured CMs from P1 Erbb2-cKO mice (Ki67, pH3, newly formed CMs); type: cell-based, mouse; details: CMs isolated from P1 Erbb2-cKO mice, NRG1 in vitro
Description: CM-restricted deletion of Erbb2 (Erbb2-cKO) was generated by crossing Erbb2^flox/flox 41 to Erbb2^lacZ/+; αMHC-Cre mice (see FIG. 2A). The Erbb2^lacZ/+ mice used in this study carry an allele that encodes a nonfunctional ErbB2-galactosidase fusion protein lacking the tyrosine kinase domain^42. In some experiments, addition of ROSA26-tdTomato allele to this system has been used to label cardiac muscle cell lineage in Erbb2-cKO mice. Erbb2^flox/flox and Erbb2^lacZ/+ mice were maintained on a C57BL/6 background. […]
(§5) Heart sections underwent deparaffinization, fixation in 4% PFA (5 minutes) and microwave antigen retrieval in EDTA or citric acid buffer, followed by gradual chilling. […] Slides were mounted with Immu-mount (9990412, Thermo scientific, MA, USA) and viewed under a fluorescence microscope (Nikon Intensilight or Nikon eclipse 90i, Nikon, Düsseldorf, Germany) or spinning disk confocal microscope (Carl Zeiss, Thornwood, N.Y., USA) as specified in the figure legends.

P1 and P7 mouse CMs = test: NRG1-stimulated proliferation of cultured P1 and P7 cardiomyocytes (Ki67, BrdU, pH3, AuroraB immunofluorescence, counting newly formed CMs); type: cell-based; details: various NRG1 doses, 72 hours
Procedure: as §2
In experiments involving administration of Neuregulin-1b (NRG1, R&D Systems, MN, USA), the cells were allowed to adhere for 48 hours in complete-medium. Subsequently, the medium was replaced with an FBS-deprived complete-medium containing the indicated NRG1 doses for 72 hours. BrdU (10 μM, B5002, Sigma, St. Louis, Mo., USA) was introduced along with NRG1. Cells were fixed in 4% PFA and stained for markers of interest.
as §5

caErbb2 CMs [3] = test: Hypertrophy (cell area) of P7 caErbb2 CMs treated in vitro with inhibitors or factors; type: cell-based, mouse; details: P7 neonatal caErbb2 heart cells, treated in vitro for 2 days
Description: as §1, §2, §3, §4

**Q.** How did the “caErbB2-induced CM proliferation / cell cycle re-entry (Ki67)” value (caErbb2 CMs [1]) turn out when Cc1c[nH]c(-c2cnc(NCCNc3ccc(C#N)cn3)nc2-c2ccc(Cl)cc2Cl)n1 [GSK3β inhibitor, CHIR-99021] was run?
**A.** promoted β-Catenin independent increase in cell cycle activity

**Q.** And the “β-Catenin accumulation in caErbb2 CMs” value (β-Catenin in caErbb2 CMs)?
**A.** further increased

**Q.** And the “RUNX1 expression in caErbb2 CMs” value (caErbb2 CMs [2])?
**A.** further increased

**Q.** What does the source list for Neuregulin-1b [NRG1]?
**A.** CM proliferation (Ki67, pH3, newly formed CMs) (neonatal Erbb2-cKO CMs): unable to induce CM proliferation; CM proliferation (cell cycle activity, DNA synthesis, mitosis, cytokinesis, newly formed CMs) (P1 and P7 mouse CMs; P1 mouse CMs in vitro): dose-dependent increase; CM proliferation (cell cycle activity, DNA synthesis, mitosis, cytokinesis, newly formed CMs) (P1 and P7 mouse CMs; P7 mouse CMs in vitro): profoundly reduced effects; also recorded: diminished

**Q.** Which “caErbB2-induced CM proliferation / cell cycle re-entry (Ki67)” value (caErbb2 CMs [1]) does the source give for O=C(NOC[C@H](O)CO)c1ccc(F)c(F)c1Nc1ccc(I)cc1F [ERK inhibitor, PD0325901] here?
**A.** completely suppressed

**Q.** What about the “caErbB2-induced hypertrophic response (CM cell area)” value (caErbb2 CMs [3]) of the same molecule?
**A.** reduced the hypertrophic response

**Q.** What about the “caErbB2-induced CM dedifferentiation (sarcomeric disassembly and RUNX1 expression)” value (caErbb2 CMs [2]) of the same molecule?
**A.** completely suppressed

**Q.** How did the “caErbB2-induced CM proliferation / cell cycle re-entry (Ki67)” value (caErbb2 CMs [1]) turn out when O=c1[nH]c2ccccc2n1C1CCN(Cc2ccc(-c3nc4cc5[nH]cnc5cc4nc3-c3ccccc3)cc2)CC1 [AKT inhibitor, AKT inhibitor VIII] was run?
**A.** moderate effect

**Q.** What about the “caErbB2-induced hypertrophic response (CM cell area)” value (caErbb2 CMs [3]) of the same molecule?
**A.** reduced hypertrophic response

**Q.** And the “caErbB2-induced CM dedifferentiation (sarcomeric disassembly and RUNX1 expression)” value (caErbb2 CMs [2])?
**A.** promoted massive dedifferentiation

**Q.** What does the source list for O=C(Nc1cccc2cccnc12)c1ccc(N2C(=O)[C@@H]3[C@H](C2=O)[C@@H]2C=C[C@H]3C2)cc1 [β-Catenin inhibitor, IWR-1]?
**A.** caErbB2-induced CM proliferation / cell cycle re-entry (Ki67) (caErbb2 CMs [1]): without significantly affecting; caErbB2-induced hypertrophic response (CM cell area) (caErbb2 CMs [3]): without significantly affecting; RUNX1 expression in caErbb2 CMs (caErbb2 CMs [2]): reduced

**Q.** For FGF1, which “caErbB2-induced CM proliferation / cell cycle re-entry (Ki67)” value (caErbb2 CMs [1]) is on record?
**A.** enhanced

**Q.** And the “caErbB2-induced hypertrophic response (CM cell area)” value (caErbb2 CMs [3])?
**A.** No obvious effects

**Q.** And the “RUNX1 expression in caErbb2 CMs” value (caErbb2 CMs [2])?
**A.** p38 inhibition, in contrast to FGF1 and Periostin, increased RUNX1 expression

**Q.** For Oc1ccc(-c2nc(-c3ccncc3)c(-c3ccc(F)cc3)[nH]2)cc1 [p38 inhibitor, SB202190], which “caErbB2-induced CM proliferation / cell cycle re-entry (Ki67)” value (caErbb2 CMs [1]) is on record?
**A.** enhanced

**Q.** What about the “caErbB2-induced hypertrophic response (CM cell area)” value (caErbb2 CMs [3]) of the same molecule?
**A.** No obvious effects

**Q.** What about the “RUNX1 expression in caErbb2 CMs” value (caErbb2 CMs [2]) of the same molecule?
**A.** increased

B1: Periostin (protein, UniProt Q15063 22-836, looked up)
Periostin: NNHYDKILAHSRIRGRDQGPNVCALQQILGTKKKYFSTCKNWYKKSICGQKTTVLYECCPGYMRMEGMKGCPAVLPIDHVYGTLGIVGATTTQRYSDASKLREEIEGKGSFTYFAPSNEAWDNLDSDIRRGLESNVNVELLNALHSHMINKRMLTKDLKNGMIIPSMYNNLGLFINHYPNGVVTVNCARIIHGNQIATNGVVHVIDRVLTQIGTSIQDFIEAEDDLSSFRAAAITSDILEALGRDGHFTLFAPTNEAFEKLPRGVLERIMGDKVASEALMKYHILNTLQCSESIMGGAVFETLEGNTIEIGCDGDSITVNGIKMVNKKDIVTNNGVIHLIDQVLIPDSAKQVIELAGKQQTTFTDLVAQLGLASALRPDGEYTLLAPVNNAFSDDTLSMDQRLLKLILQNHILKVKVGLNELYNGQILETIGGKQLRVFVYRTAVCIENSCMEKGSKQGRNGAIHIFREIIKPAEKSLHEKLKQDKRFSTFLSLLEAADLKELLTQPGDWTLFVPTNDAFKGMTSEEKEILIRDKNALQNIILYHLTPGVFIGKGFEPGVTNILKTTQGSKIFLKEVNDTLLVNELKSKESDIMTTNGVIHVVDKLLYPADTPVGNDQLLEILNKLIKYIQIKFVRGSTFKEIPVTVYTTKIITKVVEPKIKVIEGSLQPIIKTEGPTLTKVKIEGEPEFRLIKEGETITEVIHGEPIIKKYTKIIDGVPVEITEKETREERIITGPEIKYTRISTGGGETEETLKKLLQEEVTKVTKFIEGGDGHLFEDEEIKRLLQGDTPVRKLQANKKVQGSRRRLREGRSQ
notes: Periostin protein (500 ng/ml; BioVendor)
**Q.** Which results are given for B1?
**A.** caErbB2-induced CM proliferation / cell cycle re-entry (Ki67) (caErbb2 CMs [1]): enhanced; caErbB2-induced hypertrophic response (CM cell area) (caErbb2 CMs [3]): No obvious effects; RUNX1 expression in caErbb2 CMs (caErbb2 CMs [2]): p38 inhibition, in contrast to FGF1 and Periostin, increased RUNX1 expression
